The text below walks through data of article PMC8398714, “Synthesis and Evaluation of Biological Activities of Bis(spiropyrazolone)cyclopropanes: A Potential Application against Leishmaniasis” (Molecules, 2021).

SMILES strings stand for the structures.

In one experiment the test system is HeLa. The experiment in a line: MTS cell viability assay on HeLa cells. Particulars: Homo sapiens, 100 µM, 48 h, Dox 1 µM, mean ± SEM, NA = no activity, read-out: Percentage (%) of inhibition, HeLa. It counts as cell-based.
The test system of another experiment is CHO-K1. The experiment in a line: MTS cell viability assay on immortalized CHO-K1 cells. The conditions noted are these: 100 µM, 48 h, Dox 1 µM, mean ± SEM, NA = no activity, read-out: Percentage (%) of inhibition, CHO-K1. It counts as cell-based, hamster. The procedure: (§1) Five tumor human cancer cell lines—cerebral astrocytoma (D-384), grade IV prostatic adenocarcinoma (PC-3), mammary adenocarcinoma (MCF-7), human colon carcinoma (RKO) and lung carcinoma (A-549)—along with one immortalized hamster cell line (CHO K-1) were used. The cells PC-3, MCF-7 and RKO were cultured in RPMI-1640, D-384 on DMEM and CHO K-1 on HAM F-12 medium supplemented with 10% fetal bovine serum (FBS, Invitrogen, Karlsruhe, Germany), 1% antibiotic-antimitotic solution (100 units/mL penicillin G, 100 µg/mL streptomycin, and 0.25 µg/mL amphotericin B, Gibco, Grand Island, NY, USA), and 1% L-glutamine (2 mM, Gibco). The cells were incubated at 37 °C in a 5% CO2 atmosphere. The viable cells were counted using the trypan blue exclusion method in a hemocytometer.
(§2) The MTS (5-[3-(carboxymethoxy)phenyl]-3-(4,5-dimethyl-2-thiazolyl)-2-(4-sulfo- phenyl)-2H-tetrazolium inner salt) cell viability assay was used to assess the inhibitory effects of the extracts on the survival of human cancer cell lines. A total of 3–5 × 10^3 cells/well were seeded into 96-well plates and were allowed to adhere for 24 h. […] Each concentration/assay was performed three times. Dimethyl sulfoxide (DMSO) was used as a negative control at a final concentration of 0.1% v/v, and 1 µM Doxorubicin was used as a positive control. The cells were incubated with the treatments for 48 h, after which 20 µL MTS (5 mg/mL, Aqueous One Solution Reagent, Gibco) was added and further incubated for 4 h at 37 °C. The absorbance was measured at 570 nm. The data obtained with cells treated with DMSO were defined to represent 100% viability.

For a further experiment, the system named is RKO. Description: MTS cell viability assay on RKO cells. It counts as cell-based. The conditions noted are these: Homo sapiens, 48 h. The procedure:
as §1, §2

In the next experiment the test system is A-549. The experiment in a line: MTS cell viability assay on A-549 cells. It counts as cell-based. The conditions noted are these: Homo sapiens, A549; 100 µM, 48 h; Dox 1 µM; mean ± SEM; NA = no activity; read-out: Percentage (%) of inhibition, A-549. The procedure: as §1, §2
Experiment [1] can be described thus: MTS cell viability assay on A-549 cells. It counts as cell-based. The conditions noted are these: Homo sapiens; 48 h, 15-150 µM, mean ± SEM of triplicates. The method, then: as §1, §2
The subject of a further experiment is MCF-7. The experiment in a line: MTS cell viability assay on MCF-7 cells. The conditions noted are these: Homo sapiens, MCF7; 100 µM, 48 h; Dox 1 µM; mean ± SEM; NA = no activity; read-out: Percentage (%) of inhibition, MCF-7. It counts as cell-based. The method, then: as §1, §2
In another experiment the test system is PC-3. The experiment in a line: MTS cell viability assay on PC-3 cells. It counts as cell-based. Particulars: Homo sapiens, 48 h. The method, then: as §1, §2
[2] abbreviates: 15-150 µM, mean ± SEM of triplicates.

Take `COc1cccc2c1C(=O)c1c(O)c3c(c(O)c1C2=O)C[C@@](O)(C(=O)CO)C[C@@H]3O[C@H]1C[C@H](N)[C@H](O)[C@H](C)O1` [Dox, Doxorubicin, reference compound]: the inhibition at 1 µM came out at 9.18 ± 9.55% in the experiment on HeLa; 2.62 ± 1.42% with CHO-K1; 85.6 ± 1.06% in the experiment with RKO (100 µM, Dox 1 µM, mean ± SEM, NA = no activity, read-out: Percentage (%) of inhibition, RKO); 9.16 ± 2.16% with A-549; 46.2 ± 7.77% with MCF-7; 88 ± 1.65% with PC-3 (100 µM, Dox 1 µM, mean ± SEM, NA = no activity, read-out: Percentage (%) of inhibition, PC-3). Besides, the IC50 worked out at 510 ± 10 nM with RKO (setting [2]), 1230 ± 100 nM in experiment [1] and 650 ± 80 nM with PC-3 (setting [2]).
